The text below walks through data of patent US20240033373A1, “TARGETED, INTRACELLULAR DELIVERY OF THERAPEUTIC PEPTIDES USING SUPRAMOLECULAR NANOMATERIALS” (The University of Chicago, priority 2020, published 2024).

For one series, the system named is OCI-Ly3. Put plainly: Cell death assay (CellTiter-Glo 2.0). It counts as cell-based, human. Conditions: 24 h ATSP-7041 pre-treatment, then BH3 mimetic. How it is done:
(§1) Cell Death Assays Treatments were prepared in 96-well plates in 50 μL at 2× concentration. Cells were suspended at 0.2 million cells per mL, and 50 μL (10,000 cells) were added to each well and pipette-mixed. The plates were incubated for 24-72 hours, depending on the experiment, then 100 μL of CellTiter-Glo 2.0 (Promega) was added and pipette-mixed, followed by luminescence reading (SpectraMax iD5, Molecular Devices).
(§2) First, SU-DHL-5 was treated with equivalent doses of SAH-MS1-18 either as a free drug, inside of αCD19- or αOspA-PSOMs, or on the outside of empty αCD19- or αOspA-PSOMs (FIG. 14A). […] Other DLBCL cell lines, including OCILy1, OCI-Ly3, and OCI-Ly8, were treated (FIG. 14B).
For orientation: Cellular ATP, detected with luciferase, serves as a proxy for viable cell number.

The subject of another series is SU-DHL-5. In words: Cell death assay (CellTiter-Glo 2.0). It counts as cell-based, human. Conditions: 24 h ATSP-7041 pre-treatment, then BH3 mimetic. As to the method: as §1, §2
A further series has as its system DLBCL cell lines. Put plainly: Cell death assay (CellTiter-Glo 2.0), several lines stated together. It counts as cell-based, human. As to the method: Plotted points are means of duplicates+/−S.E.M., normalized to an untreated control that received the same pre-treatment, and fitted using nonlinear regression.
as §1

The conditions of series [1]: pipettable melt of PEG-SS—PPS and PEG(500)DME.
[2] abbreviates: 24 h ATSP-7041 pre-treatment vs vehicle, washed, then BH3 mimetic, WTp53 lines.

Like-named read-outs stand apart in the source and are kept apart here.

As to `Cc1c(-c2c(-c3ccc(F)o3)sc3ncnc(O[C@H](Cc4ccccc4OCc4ccnn4CC(F)(F)F)C(=O)O)c23)ccc(OCCN2CCN(C)CC2)c1Cl` [S63845], the “change in cell death sensitivity after p53-reactivation” value (“change in cell death sensitivity” for short) in the series on OCI-Ly3 is “made much more sensitive”; with SU-DHL-5 it was “made much more sensitive”; with DLBCL cell lines, “much more sensitive”. Further, the “solubility in polymer melt” value in series [1] is recorded as “highly soluble”.

Turning to `Cc1c(-c2ccc(N3CCc4cccc(C(=O)Nc5nc6ccccc6s5)c4C3)nc2C(=O)O)cnn1CC12CC3CC(CC(C3)C1)C2` [A-1331852], the “change in cell death sensitivity” value with DLBCL cell lines (setting [2]) is recorded as “no notable change in sensitivity”.

Take `CC1(C)CCC(CN2CCN(c3ccc(C(=O)NS(=O)(=O)c4ccc(NCC5CCOCC5)c([N+](=O)[O-])c4)c(Oc4cnc5[nH]ccc5c4)c3)CC2)=C(c2ccc(Cl)cc2)C1` [ABT-199]: in the series with DLBCL cell lines (setting [2]), the “change in cell death sensitivity” value is given as “no notable change in sensitivity”.
